Measurements published in ChEMBL document CHEMBL5257089, “Gamabufotalin Induces Apoptosis and Cytoprotective Autophagy through the mTOR Signaling Pathway in Hepatocellular Carcinoma” (J Nat Prod, 2023).
Residues, ends and D or L forms follow the SMILES beside them. *: point of attachment. Cbz = O=C(OCc1ccccc1)*; CH2F = FC*

Legend:
Assay type in all cases: functional
[1] = system: Hep 3B2; assay: Induction of apoptosis in human Hep3B cells assessed as viable cells at 10 nM measured after 48 hrs by annexin V-FITC/Propidium iodide staining based flow cytometric analysis (reference value: 95.6%); settings: read-out: Activity
[2] = system: Hep 3B2; assay: Induction of apoptosis in human Hep3B cells assessed as early apoptotic cells at 10 nM measured after 48 hrs by annexin V-FITC/Propidium iodide staining based flow cytometric analysis (reference value: 1.6%)
[3] = system: Hep 3B2; assay: Induction of apoptosis in human Hep3B cells assessed as late apoptotic cells at 10 nM measured after 48 hrs by annexin V-FITC/Propidium iodide staining based flow cytometric analysis (reference value: 2.4%)
[4] = system: Hep 3B2; assay: Induction of apoptosis in human Hep3B cells assessed as necrotic cells at 10 nM measured after 48 hrs by annexin V-FITC/Propidium iodide staining based flow cytometric analysis (reference value: 0.3%)
[5] = system: Hep 3B2; assay: Induction of apoptosis in human Hep3B cells assessed as viable cells at 10 nM measured after 48 hrs in presence of gamabufotalin by annexin V-FITC/Propidium iodide staining based flow cytometric analysis (reference value: 95.6%); settings: read-out: Activity
[6] = system: Hep 3B2; assay: Induction of apoptosis in human Hep3B cells assessed as early apoptotic cells at 10 nM measured after 48 hrs in presence of gamabufotalin by annexin V-FITC/Propidium iodide staining based flow cytometric analysis (reference value: 1.6%)
[7] = system: Hep 3B2; assay: Induction of apoptosis in human Hep3B cells assessed as late apoptotic cells at 10 nM measured after 48 hrs in presence of gamabufotalin by annexin V-FITC/Propidium iodide staining based flow cytometric analysis (reference value: 2.4%)
[8] = system: Hep 3B2; assay: Induction of apoptosis in human Hep3B cells assessed as necrotic cells at 10 nM measured after 48 hrs in presence of gamabufotalin by annexin V-FITC/Propidium iodide staining based flow cytometric analysis (reference value: 0.3%)
[9] = system: Huh-7; assay: Induction of apoptosis in human Huh-7 cells assessed as viable cells at 10 nM measured after 48 hrs by annexin V-FITC/Propidium iodide staining based flow cytometric analysis (reference value: 91.7%); settings: read-out: Activity
[10] = system: Huh-7; assay: Induction of apoptosis in human Huh-7 cells assessed as early apoptotic cells at 10 nM measured after 48 hrs by annexin V-FITC/Propidium iodide staining based flow cytometric analysis (reference value: 2.2%)
[11] = system: Huh-7; assay: Induction of apoptosis in human Huh-7 cells assessed as late apoptotic cells at 10 nM measured after 48 hrs by annexin V-FITC/Propidium iodide staining based flow cytometric analysis (reference value: 6.1%)
[12] = system: Huh-7; assay: Induction of apoptosis in human Huh-7 cells assessed as necrotic cells at 10 nM measured after 48 hrs by annexin V-FITC/Propidium iodide staining based flow cytometric analysis (reference value: 0.0%)
[13] = system: Huh-7; assay: Induction of apoptosis in human Huh-7 cells assessed as viable cells at 10 nM measured after 48 hrs in presence of gamabufotalin by annexin V-FITC/Propidium iodide staining based flow cytometric analysis (reference value: 91.7%); settings: read-out: Activity
[14] = system: Huh-7; assay: Induction of apoptosis in human Huh-7 cells assessed as early apoptotic cells at 10 nM measured after 48 hrs in presence of gamabufotalin by annexin V-FITC/Propidium iodide staining based flow cytometric analysis (Rvb =2.2%)
[15] = system: Huh-7; assay: Induction of apoptosis in human Huh-7 cells assessed as late apoptotic cells at 10 nM measured after 48 hrs in presence of gamabufotalin by annexin V-FITC/Propidium iodide staining based flow cytometric analysis (reference value: 6.1%)
[16] = system: Huh-7; assay: Induction of apoptosis in human Huh-7 cells assessed as necrotic cells at 10 nM measured after 48 hrs in presence of gamabufotalin by annexin V-FITC/Propidium iodide staining based flow cytometric analysis (reference value: 0.0%)

## CC(C)[C@H](NC(=O)OCc1ccccc1)C(=O)N[C@@H](C)C(=O)N[C@@H](CC(=O)O)C(=O)CF (Cbz-Val-Ala-Asp-CH2F)
[1]
  viability at 0.01 µM: 93.5%
[2]
  Activity: 2.6%
[3]
  Activity: 3.6%
[4]
  Activity: 0.3%
[5]
  viability at 0.01 µM: 91.9%
[6]
  Activity: 4.4%
[7]
  Activity: 3.5%
[8]
  Activity: 0.3%
[9]
  viability at 0.01 µM: 90.3%
[10]
  Activity: 2.7%
[11]
  Activity: 6.9%
[12]
  Activity: 0.1%
[13]
  viability at 0.01 µM: 89%
[14]
  Activity: 3.3%
[15]
  Activity: 7.4%
[16]
  Activity: 0.3%
